Data as given in US10899769B2, “Imidazopiperazinone inhibitors of transcription activating proteins” (Board of Regents, The University of Texas System, priority 2018, dated 2021).

How the values were obtained:
[1] = biological target: GST-CBP(1081-1197) bromodomain (Homo sapiens (Human), UniProt Q92793); experiment: CBP AlphaScreen Assay; details: binding to biotin-H4(1-21) Ac-K5/8/12/16
Summary of the method: (§1)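 AlphaScreen binding of GST-bromodomain to biotin-H4(1-21) Ac-K5/8/12/16: 5 nM CBP with 20 nM peptide, or 2.5 nM BRD4 with 10 nM peptide, in 50 mM HEPES 7.5, […], 1 mM TCEP, 0.003% Tween-20. Compound preincubated 30 min, then beads 2 h, room temperature. IC50 from variable-slope fit.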

BRD4(49-170) bromodomain = BRD4(49-170) bromodomain (Homo sapiens (Human), UniProt O60885); experiment: BRD4 AlphaScreen Assay; details: binding to biotin-H4(1-21) Ac-K5/8/12/16
Summary of the method: as §1

GST-CBP(1081-1197) bromodomain, sequence (Q92793 1081-1197): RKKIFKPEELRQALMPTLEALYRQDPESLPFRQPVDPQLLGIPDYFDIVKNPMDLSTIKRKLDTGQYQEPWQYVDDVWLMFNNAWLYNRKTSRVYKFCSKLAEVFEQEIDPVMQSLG

Row | IC50 [1] | IC50 (BRD4(49-170) bromodomain) | Structure (SMILES)
1 | 2 nM | 193 nM | CC1C(=O)N(C)Cc2c(-c3cccc4nc(-c5cnn(C)c5)c(C(F)(F)F)cc34)nc(C3CCOCC3)n21 (single isomer, unassigned) [Example 26a, 5,7-Dimethyl-1-(2-(1-methyl-1H-pyrazol-4-yl)-3-(trifluoromethyl)quinolin-5-yl)-3-(tetrahydro-2H-pyran-4-yl)-7,8-dihydroimidazo[1,5-a]pyrazin-6(5H)-one]
2 | 2 nM | 624 nM | CC1C(=O)N(C)Cc2c(-c3c(F)ccc4nc(-c5cnn(C)c5)c(C(F)F)cc34)nc(C3CCOCC3)n21 (single isomer, unassigned) [Example 36a, 1-(3-(Difluoromethyl)-6-fluoro-2-(1-methyl-1H-pyrazol-4-yl)quinolin-5-yl)-5,7-dimethyl-3-(tetrahydro-2H-pyran-4-yl)-7,8-dihydroimidazo[1,5-a]pyrazin-6(5H)-one]
3 | 2 nM | 51 nM | CC1C(=O)N(C)Cc2c(-c3cccc4nc(C5CCOCC5)c(C(F)F)cc34)nc(C3CC3)n21 (centres unmarked) [Example 10, 3-Cyclopropyl-1-(3-(difluoromethyl)-2-(tetrahydro-2H-pyran-4-yl)quinolin-5-yl)-5,7-dimethyl-7,8-dihydroimidazo[1,5-a]pyrazin-6(5H)-one]
4 | 453 nM | 9250 nM | C[C@H]1C(=O)N(C)Cc2c(-c3cccc4nc(-c5cnn(C)c5)c(C(F)F)cc34)nc(C3CC3)n21 [Example 110a, (S)-3-cyclopropyl-1-(3 (difluoromethyl)-2-(1-methyl-1H-pyrazol-4-yl)quinolin-5-yl)-5,7-dimethyl-7,8-dihydroimidazo[1,5-a] pyrazin-6(5H)-one]
5 | 2 nM | 392 nM | CC1C(=O)N(C)Cc2c(-c3cccc4cc(C5=CCOCC5)ncc34)nc(C3CC3)n21 (stereo not drawn) [Example 55, 3-cyclopropyl-l-(3-(3,6-dihydro-2H-pyran-4-yl)isoquinolin-8-yl)-5,7-dimethyl-7,8-dihydroimidazo[1,5-a] pyrazin-6(5H)-one]
6 | 2430 nM | 25000 nM | CCC1C(=O)N(C)Cc2c(-c3cccc4nc(-c5cnn(C)c5)c(C(F)F)cc34)nc(C3CCOCC3)n21 (single isomer, unassigned) [Example 64a, 1-(3-(difluoromethyl)-2-(1-methyl-1H-pyrazol-4-yl)quinolin-5-yl)-5-ethyl-7-methyl-3-(tetrahydro-2H-pyran-4-yl)-7,8-dihydroimidazo[1,5-a] pyrazin-6(5H)-one]
7 | 1 nM | 407 nM | C[C@@H]1C(=O)N(C)Cc2c(-c3cccc4nc(-c5cnn(C)c5)c(C(F)F)cc34)nc(C3CC3)n21 [Example 110b, (R)-3-cyclopropyl-1-(3 (difluoromethyl)-2-(1-methyl-1H-pyrazol-4-yl)quinolin-5-yl)-5,7-dimethyl-7,8-dihydroimidazo[1,5-a] pyrazin-6(5H)-one]

Second part, the compound before the results:

Row | Structure (SMILES) | IC50 [1] | IC50 (BRD4(49-170) bromodomain)
8 | CC1C(=O)N(C)Cc2c(-c3cccc4nc(-c5cnn(C)c5)c(C#N)cc34)nc(C3CC3)n21 (single isomer, unassigned) [Example 56b, 5-(3-cyclopropyl-5,7-dimethyl-6-oxo-5,6,7,8-tetrahydroimidazo[1,5-a]pyrazin-1-yl)-2-(1-methyl-1H-pyrazol-4-yl)quinoline-3-carbonitrile] | 1 nM | 132 nM
9 | C[C@@H]1C(=O)N(C)Cc2c(-c3cccc4cc(-c5cnn(C)c5)ncc34)nc(C3CC3)n21 [Example 111b, (R)-3-cyclopropyl-5,7-dimethyl-1-(3-(1-methyl-1H-pyrazol-4-yl)isoquinolin-8-yl)-7,8-dihydroimidazo[1,5-a] pyrazin-6(5H)-one] | 1 nM | 89 nM
10 | CC1C(=O)N(C)Cc2c(-c3cccc4nc(-c5cnn(C)c5)c(C(F)F)cc34)nc(C3CCS(=O)(=O)CC3)n21 (single isomer, unassigned) [Example 29b, 1-(3-(Difluoromethyl)-2-(1-methyl-1H-pyrazol-4-yl)quinolin-5-yl)-3-(1,1-dioxidotetrahydro-2H-thiopyran-4-yl)-5,7-dimethyl-7,8-dihydroimidazo[1,5-a]pyrazin-6(5H)-one] | 32 nM | 592 nM
11 | Cc1cn(-c2nc3cccc(-c4nc(C5CC5)n5c4CN(C)C(=O)C5C)c3cc2C(F)F)nn1 (centres unmarked) [Example 12, 3-cyclopropyl-1-(3-(difluoromethyl)-2-(4-methyl-1H-1,2,3-triazol-1-yl)quinolin-5-yl)-5,7-dimethyl-7,8-dihydroimidazo[1,5-a]pyrazin-6(5H)-one] | 3 nM | 130 nM
12 | CC1C(=O)N(C)Cc2c(-c3cccc4nc(-c5cnn(C)c5)c(C#N)cc34)nc(C3CCOCC3)n21 (single isomer, unassigned) [Example 8a, 5-(5,7-dimethyl-6-oxo-3-(tetrahydro-2H-pyran-4-yl)-5,6,7,8-tetrahydroimidazo[1,5-a]pyrazin-1-yl)-2-(1-methyl-1H-pyrazol-4-yl)quinoline-3-carbonitrile] | 513 nM | ≥ 25000 nM
13 | CC1C(=O)N(C)Cc2c(-c3cccc4cc(-c5cn(C)cn5)ncc34)nc(C3CC3)n21 (centres unmarked) [Example 76, 3-cyclopropyl-5,7-dimethyl-1-(3-(1-methyl-1H-imidazol-4-yl)isoquinolin-8-yl)-7,8-dihydroimidazo[1,5-a] pyrazin-6(5H)-one] | 2 nM | 384 nM
